Data taken from US20240122930A1, “INTEGRIN INHIBITORS AND USES THEREOF IN COMBINATION WITH OTHER AGENTS” (Pliant Therapeutics, Inc., priority 2022, published 2024).
Entries after “also recorded” stand apart in the source; their conditions may differ.

Columns and labels:
[1] = system: lung Col1a1 expression; experiment: Precision cut lung slices, chronic bleomycin exposure, versus and with nintedanib and pirfenidone; type: cell-based, mice (C57BL/6); conditions: chronic bleomycin PCLS; for lung slice Col1a1 expression vs DMSO vehicle control slices: 7 days
Protocol: Mice (C57BL/6) were administered 3 U/kg of bleomycin (Teva Pharmaceuticals; North Wales, PA) on Day 0 and 1 U/kg of bleomycin on days 14, 28, 42 and 56 via oropharyngeal aspiration while under anesthesia. At day 70, 14 days following the final bleomycin insult, precision cut lung slices were obtained. […] The lobes were then subjected to precision slicing to obtain samples for culture using a microtome (Compresstome VF-300-OZ, Precisionary; Greenville, NC). Individual slices were distributed in a multiwell culture plate and cultured for 7 days under control (DMSO) and test compound conditions. The viability of the slices over the course of culturing was confirmed by WST-1 assay of mitochondrial activity. During the culture period, slices in the control group were treated with DMSO and slices in the test group were treated with a DMSO solution of one of: […]

[2] = system: patients with idiopathic pulmonary fibrosis (IPF); experiment: Phase 2a randomized, double-blind, placebo-controlled trial in IPF; type: in vivo, human
Source text: The exploratory endpoints of the trial measured changes in forced vital capacity (FVC), HRCT-based Quantitative Lung Fibrosis score (QLF), and selected biomarkers over 3 months of treatment.

[3] = system: participants with idiopathic pulmonary fibrosis (IPF); experiment: Phase 2a clinical trial: patient-reported cough severity visual analog scale (VAS); type: in vivo, human; conditions: 320 mg, weeks 12 and 24, ITT; worsening on placebo
Protocol: Of interest, patients receiving Compound 5 experienced a positive impact on cough severity, while cough severity in patients receiving placebo worsened over time. […] The data histograms from left to right are 320 mg Compound 5 treatment at week 12, 320 mg Compound 5 treatment at week 24, placebo treatment at week 12, and placebo treatment at week 24. […] Cough VAS measured patient reported cough severity over last 2 weeks on scale of 0-100 mm.

[4] = system: bleomycin-treated mice; experiment: Murine bleomycin model (pSMAD3, collagen deposition); type: in vivo, mice (C57BL/6)
Protocol: Mice (C57BL/6) were divided into healthy (n=15), vehicle-treated (n=15), and test article-treated (n=15 per dose) groups. Mice in the vehicle and test article-treated groups were administered 3 U/kg of bleomycin (Teva Pharmaceuticals; North Wales, PA) via oropharyngeal aspiration while under anesthesia on day 0. Healthy animals were administered water in a similar fashion. Starting on day 7, mice in the control group were administered PBS vehicle, 130 μL, by oral gavage, BID for 14 days. Also starting on day 7, mice in the test group were administered Compound 5 in PBS by oral gavage, BID for 14 days, at relative dosages of 1×, 2.5× and 5×. […] From day 14 through day 21, 9 of the 15 mice were administered ^2H2O for labeling. All mice were sacrificed on day 21 and tissues were collected. Samples were prepared for analysis either directly from lung tissue, or by bronchoalveolar lavage, which washes out the bronchiolar and alveolar space with saline to produce a bronchoalveolar lavage fluid (BALF) in which 80-90% of cells are alveolar macrophages.
FIGS. 4F, 4G, and 4H show high resolution second harmonic generation images of fibrillar collagen (collagen type I and III) taken from formalin-fixed paraffin embedded lung tissue sections from a healthy mouse lung (4F), a vehicle-treated mouse lung (4G) and a test-article treated mouse lung (4H; 500 mg/kg BID). Color scale is indicative of collagen fiber density (red=most dense; blue=least dense).
FIG. 41 is a graph showing the percent total collagen area in the second harmonic generation mouse lung images. Large structural areas of collagen found similarly in healthy and fibrotic tissues (dense collagen fibers surrounding airways were excluded from this analysis to focus on interstitial fibrotic collagen). […] The 1×, 2.5×, and 5× dosages were at the same absolute values in mg/kg as in Example B7.
The data for FIGS. 4J and 4K, was obtained 14 days after bleomycin challenge in mice were treated with Compound 5 at 2.5× dose (PO, BID for 1.5 days).

[5] = system: PRO-C3, Type III collagen synthesis neoepitope; experiment: Phase 2a clinical trial: serum biomarker PRO-C3; type: in vivo, human; conditions: IPF participants, 40 to 320 mg, 4 to 24 weeks
Protocol: Blank columns represent 40 mg Compound 5 dosage. Grid pattern filled columns represent 80 mg Compound 5 dosage. Diagonal line filled columns represent 160 mg Compound 5 dosage. Dot filled columns represent all participants dosed with Compound 5. […] In FIG. 21, LS refers to Least Squares and SEM refers to Standard Error of Mean.
PRO-C3 and PRO-C6, serum biomarkers of type III and VI collagen synthesis, respectively, were previously shown to be elevated in patients with IPF and associated with progressive disease, according to Respir Res. 2019 Jul. 12; 20(1):148. Doi: 10.1186/s12931-019-1118-7, which is herein incorporated by reference in its entirety. Change from baseline was analyzed using a mixed model for repeated measures with terms for treatment group, visit, baseline value, and treatment-by-visit interaction. LS refers to Least Squares; SE refers to Standard Error.
Med. 2022 June; 10(6):593-602, which is incorporated herein by reference in its entirety. […] Res. 2019 Jul. 12; 20(1):148, which is incorporated herein by reference in its entirety. ** denotes that p<0.01 vs placebo. LS refers to Least Squares. SE refers to Standard Error. Integrin beta-6 data was reported in relative quantitation log2 scale.

[6] = 12 weeks, 40/80/160 mg once daily
[7] = bleomycin mice, 1×, […], 5×, vs control mice

In the case of `COCCN(CCCCc1ccc2c(n1)NCCC2)CC[C@H](Nc1ncnc2ccccc12)C(=O)O` [Compound 5, (S)-4-((2-methoxyethyl) (4-(5,6,7,8-tetrahydro-1,8-naphthyridin-2-yl)butyl)amino)-2-(quinazolin-4-ylamino) butanoic acid], the “lung Col1a1 expression vs DMSO vehicle control slices” value ([1]; 7 days culture, single agents) is reported as “substantial, statistically significant (p<0.01 vs vehicle) decrease”, the “lung slice Col1a1 expression vs DMSO vehicle control slices” value ([1]; in combination with nintedanib) is reported as “substantial, statistically significant (p<0.01 vs vehicle) decrease” and the “lung slice Col1a1 expression vs DMSO vehicle control slices” value ([1]; in combination with pirfenidone) is reported as “substantial, statistically significant (p<0.01 vs vehicle) decrease”. For the same compound, the tolerability ([2]; 40 mg, 80 mg, 160 mg once daily, 12 weeks) was “well tolerated”, the “increase in FVC relative to baseline” value ([2]; 80 mg treatment group, 12 weeks) was “+24.6 mL” and the “severity of most treatment emergent adverse events (TEAE)” value [2, 6] was “mild or moderate”. The “treatment related deaths or drug related serious adverse events (SAE)” value [2, 6] was “No treatment related deaths or drug related serious adverse events”, the “plasma concentrations vs dose” value ([2]; 40/80/160 mg once daily) was “generally dose proportional increases” and the “patients who completed 12 weeks of treatment with no discontinuations due to adverse events” value ([2]; 67 patients treated, 40/80/160 mg once daily) was 97%. The serious adverse events ([2]; administration of Compound 5 alone, patients) was “did not result in serious adverse events”, the “serum biomarkers of collagen synthesis” value ([2]; change from baseline at 4 and 12 weeks vs. placebo, FIG. 33) was “reduced” and the “treatment-emergent adverse events (TEAEs)” value ([2]; combinations with nintedanib or with pirfenidone, patients) was “resulted in treatment-emergent adverse events”. For the same compound, the “reduction in FVC decline over 12 weeks versus placebo” value ([2]; pooled Compound 5 groups) was “approximately 80%”, the “circulating biomarkers integrin beta-6 (ITGB6) and Type III collagen synthesis neoepitope (PRO-C3) levels” value ([2]; relative to the placebo group, FIG. 40) was “reduced” and the “Patient-reported cough severity (VAS), change from baseline” value [3] was “reduced”. The “relationship between pSMAD3 levels in lung and BALF cells vs. plasma drug exposure” value ([4]; 14 days after bleomycin challenge, […] dose PO BID for 1.5 days) was “close inverse relationship”, the “accumulated new collagen (percentage of lung collagen containing 2H-labeled hydroxyproline)” value ([4]; bleomycin mice, 1× and 5×, vs control mice) was “dose-dependent reduction” and the “percent total collagen area in second harmonic generation images” value [4, 7] was “substantial, statistically significant dose-dependent reduction”. For the same compound, the “total pulmonary collagen (μg of hydroxyproline)” value [4, 7] was “reduction in total pulmonary collagen”, the “SMAD3 phosphorylation in lung tissue” value ([4]; bleomycin mice, oral gavage BID 14 days, 1×, […], 5× dosages, vs vehicle) was “substantial, statistically significant dose-dependent reductions” and the “Serum PRO-C3, change from baseline relative to placebo” value [5] was “decreased; also recorded: reduced; also recorded: dose-dependent reduction”.
